Results on two compounds are retold here after patent US12240869B2, “Inhibitors of cyclin-dependent kinase 7 (CDK7)” (Syros Pharmaceuticals, Inc., priority 2018, dated 2025).

Series [1] relates to palbociclib and fulvestrant double-resistant ER+BC PDX model (ST941). The experiment in a line: Tumor growth inhibition in palbociclib and fulvestrant double-resistant PDX model. It counts as in vivo, mice. The settings on record: fulvestrant 2.5 mg/kg weekly SC. On the procedure:
(§1) Tumor growth inhibition was evaluated in estrogen receptor-positive breast cancer (ER+BC) PDX models selected in vivo for resistance to the CDK4/6 inhibitor palbociclib (ST1799, n=1) or resistance to both palbociclib and fulvestrant (ST941, n=1). Dosing was initiated when tumors were 100-200 mm^3.

The subject of series [2] is CRC cell line SW480 (KRAS p.G12V mutant). The experiment in a line: In vitro combination study, CellTiter-Glo viability, CalcuSyn. The series is classed as cell-based. Particulars: 5 days.
For series [3], the system named is palbociclib-resistant ER+BC PDX (ST1799) model. The experiment in a line: Tumor growth inhibition in palbociclib-resistant PDX model. It counts as in vivo, mice. Particulars: last day of 28-day dosing, Compound 101 6 mg/kg QD PO, fulvestrant 2.5 mg/kg weekly SC, palbociclib 50 mpk QD PO. On the procedure:
as §1

The test system of series [4] is HR+ breast cancer cell line T47D (PIK3CA p.H1047R). The experiment in a line: In vitro combination study, CellTiter-Glo viability, CalcuSyn. The series is classed as cell-based. The settings on record: 5 days.
The subject of series [5] is SCLC cell line (NCI-H1048). Described as above. It counts as cell-based. Particulars: 5 days; median effect principle (Chou-Talalay). The source says:
(§2) Combination effect is reflected by shift in IC50 of Compound 101 with addition of carboplatin or oxaliplatin or increased antiproliferative effect with lower amounts of either single agent. This is visualized in the isobolograms of FIG. 5, where points below the diagonal line reflect synergy.

The test system of series [6] is CRC cell line RKO (BRAF p.V600E mutant). The description is as above. The series is classed as cell-based. The settings on record: 5 days.
From the text: as §2

For series [7], the system named is PDX models BR5010 (TNBC), LU5178 (SCLC), OV15398 (HGSOC). The experiment in a line: Tumor growth inhibition in TNBC, SCLC and HGSOC PDX models (Example 10). The series is classed as in vivo, NOD/SCID mice.
The test system of series [8] is HR+ breast cancer cell line MCF7 (PIK3CA p.E545K). The experiment in a line: In vitro combination study, CellTiter-Glo viability, CalcuSyn. The series is classed as cell-based. The settings on record: 5 days.
Series [9] relates to 12 PDX models representing SCLC, TNBC and HGSOC. Nature of the series: TGI in 12 PDX models (Example 12). It counts as in vivo.
Description: Dosing was initiated when tumors were 150-300 mm^3. […] TGI was calculated on the last day of dosing using the formula: TGI=(Vc1−Vt1)/(Vc0−Vt0), where Vc1 and Vt1 are the mean volumes of control and treated groups at the time of tumor extraction, while Vc0 and Vt0 are the same groups at the start of dosing.
For series [10], the system named is ST390 (modeling pancreatic ductal adenocarcinoma (PDAC)). Nature of the series: Tumor growth inhibition in PDAC PDX model. The series is classed as in vivo. The settings on record: 6 mg/kg QD PO, over ~28 days, dose well below the MTD.
Description: In the PDAC model, Compound 101 was orally administered to tumor-bearing NOD/SCID mice at 6 mg/kg QD. […] The % regression was calculated as: (Mean TV Compound 101 @ EOT)/(Mean TV Compound 101 @ Day 0)×100. The same calculations were used for end of study (day 42).

For `CC1(C)CC[C@H](Nc2ncc(C(F)(F)F)c(-c3c[nH]c4c(P(C)(C)=O)c(C#N)ccc34)n2)CN1` [Compound 101, (S)-7-(dimethylphosphoryl)-3-(2-((6,6-dimethylpiperidin-3-yl)amino)-5-(trifluoromethyl)pyrimidin-4-yl)-1H-indole-6-carbonitrile], the “Tumor growth inhibition (TGI)” value turned out to be 33% in series [1] (last day of 28-day dosing, Compound 101 6 mg/kg QD PO) and 83% in series [3]. The “combination effect with trametinib” value in series [2] and in series [6] (BRAF p.V600E mutant CRC) was “significant synergy” each time. Also, the “combination effect with alpelisib” value in series [4] and in series [8] (PIK3CA p.E545K) was “significant synergy” each time. Besides, the “combination effect with carboplatin” value in [5] was “showed synergy and was superior to either agent alone”. Further, the “combination effect with gemcitabine” value in series [5] was “showed synergy and was superior to either agent alone”. The “combination effect with oxaliplatin” value in series [6] (median effect principle (Chou-Talalay)) was “showed synergy and was superior to either agent alone”. For the same compound, the “transcriptional responses in xenograft tissue” value in [7] (after dosing) is “Dose-dependent transcriptional responses in xenograft tissue were observed within 4 hours of dosing and were sustained for 24 hours”. Further, the “TGI, in words” value in [7] (oral, 21 days, TNBC 10 mg/kg QD or 5 mg/kg BID, SCLC and HGSOC 3 mg/kg BID, followed 21 days after treatment) was “deep and sustained TGI, including regressions”. Besides, the “combination effect with capecitabine” value in series [8] (HR+ MCF-7 cells) is “showed synergy and was superior to either agent alone”. Further, the “tolerability / body weight loss” value in series [9] (all once-daily doses tested, tumor-bearing mice) is “well tolerated, with no evident body weight loss”. Further, in series [9] (subset of models (58%, 7/12), TGI or regression), the “TGI of deep responses” value is greater than 95%. The MTD result in series [9] (tumor-bearing mice) was “above 10 mg/kg once daily”. In addition, the TGI (as a rule, how far tumour growth fell short of that in controls) in [10] is listed as 100%.

Take `C[C@]12CC[C@@H]3c4ccc(O)cc4C[C@@H](CCCCCCCCC[S+]([O-])CCCC(F)(F)C(F)(F)F)[C@H]3[C@@H]1CC[C@@H]2O` (some centres unmarked) [fulvestrant, reference compound]: the “activity (tumor growth inhibition), in words” value in [1] (palbociclib 50 mpk QD PO) was “no activity”.
